Where two headings read alike, the source gives them in different places.

One test addresses cIAP2-BIR2 (Homo sapiens (Human), UniProt Q13489). Put plainly: BIR binding assay (FRET competition), cIAP2 BIR2. The method in brief:
(§1)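 His-tagged domains (50 nM cIAP1-BIR3, 325 nM cIAP2-BIR2, 325 nM cIAP1-BIR2, 100 nM XIAP-BIR3) compete with compounds for a 200 nM AlexaFluor647-labelled SMAC/DIABLO peptide in HEPES buffer, pH 7.4, for 60 min. Then 2 nM Eu-W1024 is added for 30 min. The 615/665 nm ratio is fit by four-parameter fit to give IC50.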

The next test has as its target XIAP-BIR3 (Homo sapiens (Human), UniProt P98170). Put plainly: BIR binding assay (FRET competition), XIAP BIR3. The settings on record: for XIAP BIR3 vs BIR2 separation window: fold separation (FS) for XIAP. The method in brief:
as §1

A further test has as its target XIAP-BIR2 (Homo sapiens (Human), UniProt P98170). Put plainly: BIR binding assay (FRET competition), XIAP BIR2. The method in brief: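 Compounds in a 15-point, 3-fold series competed with an AlexaFluor647 SMAC peptide (AVPIAQKSE, 200 nM) for 200 nM His-tagged XIAP-BIR2 over 60 min in pH 7.4 HEPES/CHAPS/DTT buffer. Eu-W1024 (2 nM) was then added for 30 min. IC50 and pIC50 were derived from the 615 nm/665 nm emission ratio by variable-slope fit.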

The target in a further test is cIAP1-BIR3 (Homo sapiens (Human), UniProt Q13490). The test is described as follows: BIR binding assay (FRET competition), cIAP1 BIR3. The note with it: for cIAP1 BIR3 vs BIR2 separation window: fold separation (FS) for cIAP1. The method in brief:
as §1

For the next test, the target named is cIAP2-BIR3 (Homo sapiens (Human), UniProt Q13489). The test is described as follows: BIR binding assay (FRET competition), cIAP2 BIR3. The note with it: for cIAP2 BIR3 vs BIR2 separation window: fold separation (FS) for cIAP2.
cIAP2-BIR3, sequence (Q13489 238-349): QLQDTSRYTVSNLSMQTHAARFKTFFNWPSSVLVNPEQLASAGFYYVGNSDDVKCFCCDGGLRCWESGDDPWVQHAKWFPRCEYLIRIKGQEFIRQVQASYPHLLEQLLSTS
In test [1] the test system is Jurkat HIV-luciferase clones. The test is described as follows: Jurkat latency reversal assay. It is filed as cell-based. The note with it: Homo sapiens, 48 h; Jurkat latency reversal assay potency; read-out: Jurkat pEC50 (converted). The method in brief: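 A 1:1:1 mix of three Jurkat clones (C16, 115, N6) carrying integrated luciferase-expressing HIV proviruses, 5,000 cells/well, was exposed to 3-fold, 14-point compound titrations from 10 μM at 0.5% DMSO for 48 h at 37° C. Steady-Glo luminescence was fitted by four-parameter logistic regression to give EC50 and maximal percent activation relative to vehicle.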

A further test concerns the target cIAP1-BIR2 (Homo sapiens (Human), UniProt Q13490). Put plainly: BIR binding assay (FRET competition), cIAP1 BIR2. The method, boiled down: as §1
[2] abbreviates: FRET competition binding, read-out: XIAP BIR2 (pIC50) (converted).

XIAP-BIR2, sequence (P98170 124-240): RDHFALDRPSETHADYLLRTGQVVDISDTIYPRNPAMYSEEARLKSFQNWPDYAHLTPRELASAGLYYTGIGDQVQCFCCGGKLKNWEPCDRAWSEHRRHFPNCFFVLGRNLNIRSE
cIAP1-BIR2, sequence (Q13490 173-257): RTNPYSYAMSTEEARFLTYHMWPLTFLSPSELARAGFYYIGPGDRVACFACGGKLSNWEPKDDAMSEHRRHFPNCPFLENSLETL
cIAP2-BIR2, sequence (Q13489 158-242): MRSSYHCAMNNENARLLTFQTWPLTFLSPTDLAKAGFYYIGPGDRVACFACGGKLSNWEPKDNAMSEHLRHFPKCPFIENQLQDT
cIAP1-BIR3, sequence (Q13490 253-363): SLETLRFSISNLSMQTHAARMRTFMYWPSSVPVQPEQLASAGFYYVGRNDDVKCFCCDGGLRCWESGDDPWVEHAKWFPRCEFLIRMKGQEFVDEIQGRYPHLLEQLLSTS
XIAP-BIR3, sequence (P98170 241-356): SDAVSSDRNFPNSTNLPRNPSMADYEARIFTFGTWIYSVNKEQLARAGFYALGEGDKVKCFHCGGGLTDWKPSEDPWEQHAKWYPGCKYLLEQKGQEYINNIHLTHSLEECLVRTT

As to `C[C@@H]1CN(CC(=O)N2CC(C)(C)c3[nH]c(=O)c(Cc4ccc(F)cc4)cc32)[C@@H](CN2CCC[C@@H](NC(=O)CCCCCCC(=O)N[C@@H]3CCCN(C[C@H]4CN[C@H](C)CN4CC(=O)N4CC(C)(C)c5[nH]c(=O)c(Cc6ccc(F)cc6)cc54)C3)C2)CN1` [Example 44, N^1,N^8-bis((R)-1-(((2R,5R)-1-(2-(6-(4-fluorobenzyl)-3,3-dimethyl-5-oxo-2,3,4,5-tetrahydro-1H-pyrrolo[3,2-b]pyridin-1-yl)-2-oxoethyl)-5-methylpiperazin-2-yl)methyl)piperidin-3-yl)octanediamide], the IC50 at cIAP2-BIR2 was in the range of 10000 to 51300 nM; on XIAP-BIR3, 15.8 to 31.6 nM; on cIAP2-BIR3 it was 15.8 to 31.6 nM; at cIAP1-BIR2, 10000 to 51300 nM. Moreover, the “XIAP BIR3 vs BIR2 separation window” value on XIAP-BIR3 is recorded as “++++ (FS>10,000)”. Also, the “XIAP BIR2 (pIC50)” value at XIAP-BIR2 (FRET competition binding) is “+ (4.29<pIC50<=5.00)”. Besides, the “cIAP1 BIR3 (pIC50)” value at cIAP1-BIR3 (FRET competition binding) is recorded as “+ (7.50>pIC50>=6.30)”. For the same compound, the “cIAP1 BIR3 vs BIR2 separation window” value at cIAP1-BIR3 is recorded as “+++ (10,000>FS>1,000)”. The “cIAP2 BIR3 vs BIR2 separation window” value on cIAP2-BIR3 is “++++ (FS>10,000)”. For the same compound, the EC50 in test [1] was 316 to 3310 nM.
Take `C[C@@H]1CN(CC(=O)N2CC(C)(C)c3[nH]c(=O)c(Cc4ccc(F)cc4)cc32)[C@@H](CN2CCC[C@@H](NC(=O)Cc3ccc(CC(=O)N[C@@H]4CCCN(C[C@H]5CN[C@H](C)CN5CC(=O)N5CC(C)(C)c6[nH]c(=O)c(Cc7ccc(F)cc7)cc65)C4)cc3)C2)CN1` [Example 48, 2,2′-(1,4-phenylene)bis(N-((R)-1-(((2R,5R)-1-(2-(6-(4-fluorobenzyl)-3,3-dimethyl-5-oxo-2,3,4,5-tetrahydro-1H-pyrrolo[3,2-b]pyridin-1-yl)-2-oxoethyl)-5-methylpiperazin-2-yl)methyl)piperidin-3-yl)acetamide)]: the IC50 at cIAP2-BIR2 is 10000 to 51300 nM; on XIAP-BIR3, 15.8 to 31.6 nM; on XIAP-BIR2 (setting [2]), 10000 to 51300 nM; on cIAP1-BIR3 it was 15.8 to 31.6 nM; at cIAP2-BIR3 it was 15.8 to 31.6 nM; at cIAP1-BIR2 it was 10000 to 51300 nM. For the same compound, the “XIAP BIR3 vs BIR2 separation window” value on XIAP-BIR3 was “++++ (FS>10,000)”. In addition, the “cIAP1 BIR3 vs BIR2 separation window” value on cIAP1-BIR3 is recorded as “+++ (10,000>FS>1,000)”. For the same compound, the “cIAP2 BIR3 vs BIR2 separation window” value on cIAP2-BIR3 was “++++ (FS>10,000)”. Further, the EC50 in test [1] is 316 to 3310 nM.
On to `C[C@@H]1CN(CC(=O)N2CC(C)(C)c3[nH]c(=O)c(Cc4ccc(F)cc4)cc32)[C@@H](CN2CCO[C@H](COCC#CC#CCOC[C@@H]3CN(C[C@H]4CN[C@H](C)CN4CC(=O)N4CC(C)(C)c5[nH]c(=O)c(Cc6ccc(F)cc6)cc54)CCO3)C2)CN1` [Example 63, 1,1′-(2,2′-((3R,3′R,6R,6′R)-(((2S,2'S)-((hexa-2,4-diyne-1,6-diylbis(oxy))bis(methylene))bis(morpholine-2,4-diyl))bis(methylene))bis(3-methylpiperazine-6,1-diyl))bis(acetyl))bis(6-(4-fluorobenzyl)-3,3-dimethyl-1,2,3,4-tetrahydro-5H-pyrrolo[3,2-b]pyridin-5-one)], for which the IC50 was 3160 to 10000 nM at cIAP2-BIR2; 15.8 to 31.6 nM on XIAP-BIR3; 10000 to 51300 nM on XIAP-BIR2 (setting [2]); 7.94 to 15.8 nM at cIAP1-BIR3; 15.8 to 31.6 nM at cIAP2-BIR3; 1000 to 3160 nM at cIAP1-BIR2. For the same compound, the EC50 in test [1] was 12.6 to 63.1 nM.
For the compound `C[C@@H]1CN(CC(=O)N2CC(C)(C)c3[nH]c(=O)c(Cc4ccc(F)cc4)cc32)[C@@H](CN2CCO[C@H](COc3ccccc3Oc3ccccc3OC[C@@H]3CN(C[C@H]4CN[C@H](C)CN4CC(=O)N4CC(C)(C)c5[nH]c(=O)c(Cc6ccc(F)cc6)cc54)CCO3)C2)CN1` [Example 68, 1,1′-(2,2′-((3R,3′R,6R,6′R)-(((2S,2'S)-(((oxybis(2,1-phenylene))bis(oxy))bis(methylene))bis(morpholine-2,4-diyl))bis(methylene))bis(3-methylpiperazine-6,1-diyl))bis(acetyl))bis(6-(4-fluorobenzyl)-3,3-dimethyl-1,2,3,4-tetrahydro-5H-pyrrolo[3,2-b]pyridin-5-one)], the IC50 on cIAP2-BIR2 is 1000 to 3160 nM; at XIAP-BIR3, 7.94 to 15.8 nM; at XIAP-BIR2 (setting [2]), 10000 to 51300 nM; on cIAP1-BIR3, 15.8 to 31.6 nM; at cIAP2-BIR3, 7.94 to 15.8 nM; on cIAP1-BIR2, 3160 to 10000 nM. Further, at XIAP-BIR3, the “XIAP BIR3 vs BIR2 separation window” value was “+++ (10,000>FS>1,000)”. In addition, the “cIAP1 BIR3 vs BIR2 separation window” value on cIAP1-BIR3 is “+++ (10,000>FS>1,000)”. The “cIAP2 BIR3 vs BIR2 separation window” value at cIAP2-BIR3 is on record as “+++ (10,000>FS>1,000)”. For the same compound, the EC50 in test [1] is 0.49 to 12.6 nM.
`C[C@@H]1CN(CC(=O)N2CC(C)(C)c3[nH]c(=O)c(Cc4ccc(F)cc4)cc32)[C@@H](CN2CCO[C@H](COc3cccc(OC[C@@H]4CN(C[C@H]5CN[C@H](C)CN5CC(=O)N5CC(C)(C)c6[nH]c(=O)c(Cc7ccc(F)cc7)cc65)CCO4)c3)C2)CN1` [Example 69, 1,1′-(2,2′-((3R,3′R,6R,6′R)-(((2S,2'S)-((1,3-phenylenebis(oxy))bis(methylene))bis(morpholine-2,4-diyl))bis(methylene))bis(3-methylpiperazine-6,1-diyl))bis(acetyl))bis(6-(4-fluorobenzyl)-3,3-dimethyl-1,2,3,4-tetrahydro-5H-pyrrolo[3,2-b]pyridin-5-one)]: the IC50 on cIAP2-BIR2 was in the range of 1000 to 3160 nM; on XIAP-BIR3 it was 15.8 to 31.6 nM; at XIAP-BIR2, 10000 to 51300 nM; at cIAP1-BIR3, 7.94 to 15.8 nM; on cIAP2-BIR3 it was 7.94 to 15.8 nM; at cIAP1-BIR2, 1000 to 3160 nM. The EC50 in test [1] is 0.49 to 12.6 nM.
Regarding `C[C@@H]1CN(CC(=O)N2CC(C)(C)c3[nH]c(=O)c(Cc4ccc(F)cc4)cc32)[C@@H](CN2CCO[C@H](COc3ccc(OC[C@@H]4CN(C[C@H]5CN[C@H](C)CN5CC(=O)N5CC(C)(C)c6[nH]c(=O)c(Cc7ccc(F)cc7)cc65)CCO4)cc3)C2)CN1` [Example 70, 1,1′-(2,2′-((3R,3′R,6R,6′R)-(((2S,2'S)-((1,4-phenylenebis(oxy))bis(methylene))bis(morpholine-2,4-diyl))bis(methylene))bis(3-methylpiperazine-6,1-diyl))bis(acetyl))bis(6-(4-fluorobenzyl)-3,3-dimethyl-1,2,3,4-tetrahydro-5H-pyrrolo[3,2-b]pyridin-5-one)], the IC50 at cIAP2-BIR2 is 1000 to 3160 nM; at XIAP-BIR3, 15.8 to 31.6 nM; on XIAP-BIR2 (setting [2]), 10000 to 51300 nM; at cIAP1-BIR3 it was 15.8 to 31.6 nM; at cIAP2-BIR3, 7.94 to 15.8 nM; at cIAP1-BIR2 it was 1000 to 3160 nM. The “XIAP BIR3 vs BIR2 separation window” value on XIAP-BIR3 is “++++ (FS>10,000)”. In addition, the “cIAP1 BIR3 vs BIR2 separation window” value on cIAP1-BIR3 is given as “+++ (10,000>FS>1,000)”. For the same compound, the “cIAP2 BIR3 vs BIR2 separation window” value on cIAP2-BIR3 was “+++ (10,000>FS>1,000)”. In addition, in test [1], the EC50 is 0.49 to 12.6 nM.
Take `C[C@@H]1CN(CC(=O)N2CC(C)(C)c3[nH]c(=O)c(Cc4ccc(F)cc4)cc32)[C@@H](CN2CCO[C@H](COc3ccccc3OC[C@@H]3CN(C[C@H]4CN[C@H](C)CN4CC(=O)N4CC(C)(C)c5[nH]c(=O)c(Cc6ccc(F)cc6)cc54)CCO3)C2)CN1` [Example 71, 1,1′-(2,2′-((3R,3′R,6R,6′R)-(((2S,2'S)-((1,2-phenylenebis(oxy))bis(methylene))bis(morpholine-2,4-diyl))bis(methylene))bis(3-methylpiperazine-6,1-diyl))bis(acetyl))bis(6-(4-fluorobenzyl)-3,3-dimethyl-1,2,3,4-tetrahydro-5H-pyrrolo[3,2-b]pyridin-5-one)]: the IC50 at cIAP2-BIR2 was 1000 to 3160 nM; at XIAP-BIR3, 15.8 to 31.6 nM; on XIAP-BIR2 (setting [2]), 10000 to 51300 nM; at cIAP1-BIR3 it was 7.94 to 15.8 nM; at cIAP2-BIR3 it was 7.94 to 15.8 nM; at cIAP1-BIR2 it was 1000 to 3160 nM. Further, the “XIAP BIR3 vs BIR2 separation window” value at XIAP-BIR3 is given as “++++ (FS>10,000)”. Further, the “cIAP1 BIR3 vs BIR2 separation window” value on cIAP1-BIR3 was “++ (1,000>FS>100)”. Further, the “cIAP2 BIR3 vs BIR2 separation window” value on cIAP2-BIR3 was “+++ (10,000>FS>1,000)”. For the same compound, the EC50 in test [1] was 63.1 to 316 nM.
Regarding `C[C@@H]1CN(CC(=O)N2CC(C)(C)c3[nH]c(=O)c(Cc4ccc(F)cc4)cc32)[C@@H](CN2CCO[C@H](COc3cccc(OC[C@@H]4CN(C[C@H]5CN[C@H](C)CN5CC(=O)N5CC(C)(C)c6[nH]c(=O)c(Cc7ccc(F)cc7)cc65)CCO4)c3F)C2)CN1` [Example 72, 1,1′-(2,2′-((3R,3′R,6R,6′R)-(((2S,2'S)-(((2-fluoro-1,3-phenylene)bis(oxy))bis(methylene))bis(morpholine-2,4-diyl))bis(methylene))bis(3-methylpiperazine-6,1-diyl))bis(acetyl))bis(6-(4-fluorobenzyl)-3,3-dimethyl-1,2,3,4-tetrahydro-5H-pyrrolo[3,2-b]pyridin-5-one)], the IC50 was 1000 to 3160 nM at cIAP2-BIR2; 15.8 to 31.6 nM at XIAP-BIR3; 10000 to 51300 nM on XIAP-BIR2; 7.94 to 15.8 nM on cIAP1-BIR3; 15.8 to 31.6 nM at cIAP2-BIR3; 22.4 to 1000 nM at cIAP1-BIR2. The EC50 in test [1] was 0.49 to 12.6 nM.
